Read-outs that look alike come from different tables or passages of the source.
Assays:
[1] = tested on: Cholesterol and triglyceride in the serum; experiment: (i) Serum cholesterol and triglyceride reduction in rats fed a diet containing 1% of cholesterol; format: in vivo, Male Sprague-Dowley rats; conditions: rats on diet containing 1% cholesterol, test compound 0.1% (W/W) in diet, oral, 5 days, control = 100%
Description: (§1) (i) Male Sprague-Dowley rats were used. Each group was composed of 8 animals. Rats were fed a diet containing 1% of cholesterol. The test compound was orally administered to the animal by feeding with the diet to which the compound was blended in a ratio of 0.1% (W/W) for 5 days. Cholesterol and triglyceride in the serum were determined by the standard methods using an autoanalyzer (Technicon Inc.). The levels in the control group were considered as 100% and the reduction rate in the test group was calculated.

[2] = tested on: Cholesterol and triglyceride in the serum; experiment: (ii) Serum cholesterol and triglyceride reduction in rats fed a conventional diet; format: in vivo, Male Sprague-Dowley rats; conditions: rats on conventional diet, test compound 0.1% (W/W) in diet, oral, 5 days, control = 100%
Description: as §1, with “calculated. (ii) With the exception that rats were fed a conventional diet instead of the diet containing 1% cholesterol, a test was carried out in the same condition (rats used, administration method, period, concentration of test compound and cholesterol and triglyceride determination) as in the above test (i).” for “calculated.”

[3] = (iii) Acute toxicity (LD50) in mice; conditions: mouse, in vivo, mortality within 7 days
Description: (iii) Male dd-strain mice were used. Each group was composed of 10 animals. The test compound was administered intraperitoneally or orally to the animals. The LD50 (mg/kg) was calculated from the mortality within 7 days after administration of the test compound.

blood cholesterol = experiment: (iv) Blood cholesterol reduction in hyperlipemic monkeys fed a diet containing 0.25% cholesterol; format: in vivo; conditions: hyperlipemic Rhesus monkeys, diet with 0.25% cholesterol; diet containing 0.7% (W/W) test compound, 15 days; vs control group
[4] = ip, intraperitoneal, read-out: LD50 Intraperitoneal administration
[5] = oral, read-out: LD50 Oral administration

Row | SMILES | Reduction Rate (%) Cholesterol [1] | Reduction Rate (%) Triglyceride [1] | Reduction Rate (%) Cholesterol [2] | Reduction Rate (%) Triglyceride [2] | LD50 at 168 h [3, 4] | LD50 at 168 h [3, 5] | reduction activity of blood cholesterol (blood cholesterol)
1 | CCOc1oc(-c2ccc(OCc3ccc(Cl)cc3)cc2)nc1CC(=O)O [Compound D, 2-[4-(4-Chlorobenzyloxy)phenyl]-5-ethoxy-4-oxazoleacetic acid] | 37% | 42% | 19% | 53% |  |  | 
2 | CCCCCCCCCCCCCCCCOc1ccc(-c2nc(CC(=O)O)c(Oc3ccc(Cl)cc3)o2)cc1 [Compound C, 2-(4-n-Hexadecyloxyphenyl)-5-(4-chlorophenoxy)-4-oxazoleacetic acid] | 31% | 37% |  |  |  |  | 
3 | CCOC(=O)C(C)(C)Oc1ccc(Cl)cc1 [Compound E, Clofibrate, reference compound] | 22% | 23% | 23% | 34% | > 1000 mg/kg | > 1450 mg/kg | 
4 | CCCCCCCCCCCCCCCCNc1ccc(-c2nc(CC(=O)[O-])c(OCC)o2)cc1.[Na+] | 31% | 28% | 26% | 44% | > 1000 mg/kg | > 2500 mg/kg | outstanding reduction activity
5 | CCCCCCCCCCCCCCCCOc1ccc(-c2nc(CC(=O)O)c(OCC)o2)cc1 [Compound A, 2-(4-n-Hexadecyloxyphenyl)-5-ethoxy-4-oxazoleacetic acid] | 21% | 35% | 29% | 44% | > 1000 mg/kg | > 2500 mg/kg | outstanding reduction activity
